ChEMBL document CHEMBL2169750, “Imidazo-benzothiazoles a potent microRNA modulator involved in cell proliferation” (Bioorg Med Chem Lett, 2012)
Activity calls are given as the source filed them. The calls are words filed in the database; no cut-off is given here.

Tests used:
[1] = tested on: Drosophila melanogaster; test: Toxicity in Drosophila melanogaster third instar larvae assessed as change in larvae development at 40 uM administered through feeding measured after 5 days; format: organism-based; conditions: in vivo, po, 120 h
[2] = tested on: COLO 205; test: Cytotoxicity against human COLO205 cells assessed as reduction in cell viability at 0.5 to 4 uM after 48 hrs by MTT assay; format: functional, cell-based
[3] = tested on: Drosophila melanogaster; test: Toxicity in Drosophila melanogaster third instar larvae assessed as change in fecundity at 40 uM administered through feeding measured after 5 days; format: organism-based; conditions: in vivo, po, 120 h
[4] = tested on: Drosophila melanogaster; test: Downregulation of bantam microRNA expression in Drosophila melanogaster third instar larval wing imaginal disc assessed as increase in EGFP expression at 40 uM administered through feeding measured after 5 days by confocal microscopy; format: functional, organism-based
[5] = tested on: Drosophila melanogaster; test: Downregulation of miR-13a expression in Drosophila melanogaster third instar larval wing imaginal disc assessed as increase in EGFP expression at 40 uM administered through feeding measured after 5 days by confocal microscopy; format: functional, organism-based
[6] = tested on: Drosophila melanogaster; test: Downregulation of miR-14 expression in Drosophila melanogaster third instar larval wing imaginal disc assessed as increase in EGFP expression at 40 uM administered through feeding measured after 5 days by confocal microscopy; format: functional, organism-based
[7] = tested on: COLO 205; test: Cell cycle arrest in human COLO205 cells assessed as accumulation at G2/M phase at 4 uM after 24 hrs by propidium iodide staining-based flow cytometry (reference value: 22%); format: functional
[8] = tested on: COLO 205; test: Cell cycle arrest in human COLO205 cells assessed as accumulation at G1 phase at 4 uM after 24 hrs by propidium iodide staining-based flow cytometry (reference value: 71%); format: functional
[9] = tested on: COLO 205; test: Downregulation of HDAC-3 protein expression in human COLO205 cells at 4 uM after 24 hrs by Western blot analysis; format: functional, cell-based
[10] = tested on: COLO 205; test: Cell cycle arrest in human COLO205 cells assessed as accumulation at S phase at 4 uM after 24 hrs by propidium iodide staining-based flow cytometry (reference value: 7%); format: functional
[11] = tested on: COLO 205; test: Downregulation of HDAC-6 protein expression in human COLO205 cells at 4 uM after 24 hrs by Western blot analysis; format: functional, cell-based
[12] = tested on: Drosophila melanogaster; test: Downregulation of DIAP1 expression in Drosophila melanogaster third instar larval wing imaginal disc at 10 to 100 uM administered through feeding measured after 5 days by semi quantitative RT-PCR analysis; format: functional
[13] = tested on: Drosophila melanogaster; test: Downregulation of miR-13a expression in Drosophila melanogaster third instar larval wing imaginal disc assessed as increase in EGFP expression at 40 uM administered through feeding measured after 5 days by confocal microscopy relative to control; format: functional
[14] = tested on: COLO 205; test: Cytotoxicity against human COLO205 cells assessed as decrease in AGO-1 expression at 4 uM after 24 hrs by Western blot analysis; format: functional, cell-based
[15] = tested on: COLO 205; test: Induction of apoptosis in human COLO205 cells assessed as DNA fragmentation at 4 uM by tunel assay; format: functional, cell-based
[16] = tested on: COLO 205; test: Cytotoxicity against human COLO205 cells assessed as miR-450 expression by RT-PCR analysis; format: functional, cell-based
[17] = tested on: Drosophila melanogaster; test: Effect on Ago-1 expression in Drosophila melanogaster third instar larval wing imaginal disc at 10 to 100 uM administered through feeding measured after 5 days by semi quantitative RT-PCR analysis; format: functional, organism-based
[18] = tested on: Drosophila melanogaster; test: Induction of apoptosis in Drosophila melanogaster third instar larval wing imaginal disc assessed as Dronc activation at 10 to 100 uM administered through feeding measured after 5 days by semi quantitative RT-PCR analysis relative to control; format: functional
[19] = tested on: COLO 205; test: Induction of apoptosis in human COLO205 cells assessed as caspase 3 expression at 4 uM after 24 hrs by fluorimetric assay in presence of Z-DEVD-FMK; format: functional, cell-based
[20] = tested on: COLO 205; test: Induction of apoptosis in human COLO205 cells assessed as caspase 9 expression at 4 uM after 24 hrs by fluorimetric assay in presence of Z-LEHD-FMK; format: functional, cell-based
[21] = tested on: COLO 205; test: Induction of apoptosis in human COLO205 cells assessed as increase in caspase 9 expression at 4 uM after 24 hrs by fluorimetric assay relative to control; format: functional
[22] = tested on: Drosophila melanogaster; test: Induction of apoptosis in Drosophila melanogaster third instar larval wing imaginal disc assessed as Dcp-1 activation at 10 to 100 uM administered through feeding measured after 5 days by semi quantitative RT-PCR analysis relative to control; format: functional
[23] = tested on: Drosophila melanogaster; test: Downregulation of bantam microRNA expression in Drosophila melanogaster third instar larval wing imaginal disc assessed as increase in EGFP expression at 40 uM administered through feeding measured after 5 days by confocal microscopy relative to control; format: functional
[24] = tested on: Drosophila melanogaster; test: Downregulation of HDAC4 mRNA expression in Drosophila melanogaster third instar larval wing imaginal disc at 10 to 100 uM administered through feeding measured after 5 days by semi quantitative RT-PCR analysis; format: functional, organism-based
[25] = tested on: Drosophila melanogaster; test: Upregulation of Reaper expression in Drosophila melanogaster third instar larval wing imaginal disc at 10 to 100 uM administered through feeding measured after 5 days by semi quantitative RT-PCR analysis relative to control; format: functional
[26] = tested on: Drosophila melanogaster; test: Upregulation of Hid expression in Drosophila melanogaster third instar larval wing imaginal disc at 10 to 100 uM administered through feeding measured after 5 days by semi quantitative RT-PCR analysis relative to control; format: functional
[27] = tested on: COLO 205; test: Cytotoxicity against human COLO205 cells assessed as decrease in miR-542-5p level by RT-PCR analysis; format: functional, cell-based
[28] = tested on: Drosophila melanogaster; test: Upregulation of Grim expression in Drosophila melanogaster third instar larval wing imaginal disc at 10 to 100 uM administered through feeding measured after 5 days by semi quantitative RT-PCR analysis relative to control; format: functional
[29] = tested on: Drosophila melanogaster; test: Downregulation of HDAC3 mRNA expression in Drosophila melanogaster third instar larval wing imaginal disc at 10 to 100 uM administered through feeding measured after 5 days by semi quantitative RT-PCR analysis; format: functional, organism-based
[30] = tested on: Drosophila melanogaster; test: Downregulation of Dicer-1 expression in Drosophila melanogaster third instar larval wing imaginal disc at 10 to 100 uM administered through feeding measured after 5 days by semi quantitative RT-PCR analysis relative to control; format: functional
[31] = tested on: COLO 205; test: Induction of apoptosis in human COLO205 cells assessed as increase in caspase 3 expression at 4 uM after 24 hrs by fluorimetric assay relative to control; format: functional
[32] = tested on: COLO 205; test: Cytotoxicity against human COLO205 cells assessed as decrease in AGO-2 expression at 4 uM after 24 hrs by Western blot analysis; format: functional, cell-based
[33] = tested on: COLO 205; test: Induction of apoptosis in human COLO205 cells assessed as cellular shrinkage at 4 uM after 24 hrs by Hoechst 33342-staining based confocal microscopy; format: functional, cell-based
[34] = tested on: COLO 205; test: Cytotoxicity against human COLO205 cells assessed as increase in miR-145 level by RT-PCR analysis; format: functional, cell-based
[35] = tested on: COLO 205; test: Induction of apoptosis in human COLO205 cells assessed as chromatin condensation at 4 uM after 24 hrs by Hoechst 33342-staining based confocal microscopy; format: functional, cell-based
[36] = tested on: Drosophila melanogaster; test: Downregulation of HDAC-1 mRNA expression in Drosophila melanogaster third instar larval wing imaginal disc at 10 to 100 uM administered through feeding measured after 5 days by semi quantitative RT-PCR analysis; format: functional, organism-based
[37] = tested on: Drosophila melanogaster; test: Downregulation of Drosha expression in Drosophila melanogaster third instar larval wing imaginal disc at 10 to 100 uM administered through feeding measured after 5 days by semi quantitative RT-PCR analysis relative to control; format: functional
[38] = tested on: COLO 205; test: Induction of apoptosis in human COLO205 cells assessed as cellular blebbing at 4 uM after 24 hrs by Hoechst 33342-staining based confocal microscopy; format: functional, cell-based
[39] = tested on: Drosophila melanogaster; test: Downregulation of Sir2 mRNA expression in Drosophila melanogaster third instar larval wing imaginal disc at 10 to 100 uM administered through feeding measured after 5 days by semi quantitative RT-PCR analysis; format: functional, organism-based
[40] = tested on: Drosophila melanogaster; test: Downregulation of HDAC6 mRNA expression in Drosophila melanogaster third instar larval wing imaginal disc at 10 to 100 uM administered through feeding measured after 5 days by semi quantitative RT-PCR analysis; format: functional, organism-based
[41] = tested on: COLO 205; test: Cytotoxicity against human COLO205 cells assessed as Dicer-1 expression at 4 uM after 24 hrs by Western blot analysis; format: functional, cell-based
[42] = tested on: Drosophila melanogaster; test: Downregulation of Pasha expression in Drosophila melanogaster third instar larval wing imaginal disc at 10 to 100 uM administered through feeding measured after 5 days by semi quantitative RT-PCR analysis relative to control; format: functional

Cc1ccc2c(c1)sc1nc(-c3ccccc3)c(CN3CCCC3)n12
Activity [1]: Non-toxic
Activity [2]: Active
Activity [3]: Non-toxic

c1ccc(-c2nc3sc4ccccc4n3c2CN2CCCC2)cc1
Activity [1]: Non-toxic
Activity [2]: Active
Activity [3]: Non-toxic

CCOc1ccc2c(c1)sc1nc(-c3ccc(Cl)cc3)c(CN3CCN(c4ccccn4)CC3)n12
Activity [4]: Active
Activity [1]: Non-toxic
Activity [2]: Active
Activity [3]: Non-toxic
Activity [5]: Active
Activity [6]: inactive

CCOc1ccc2c(c1)sc1nc(-c3ccccc3)c(CN3CCCC3)n12
Activity [1]: Non-toxic
Activity [2]: Active
Activity [3]: Non-toxic

CCN(CC)CCOc1cccc(-c2cn3c(n2)sc2ccccc23)c1.Cl.Cl
Activity [7]: 73%
Activity [8]: 22%
Activity [9]: Active
Activity [10]: 5%
Activity [11]: Active

Clc1ccc(-c2nc3sc4ccccc4n3c2CN2CCN(c3ccccn3)CC2)cc1
fold change (FC) [12]: 5
fold change (FC) [13]: 3
Activity [14]: Active
Activity [15]: Active
Activity [16]: inactive
Activity [7]: 15%
Activity [17]: inactive
fold change (FC) [18]: 3
Activity [19]: inactive
Activity [8]: 80%
Activity [20]: inactive
fold change (FC) [21]: 2.5
fold change (FC) [22]: 3
fold change (FC) [23]: 5
Activity [24]: Active
fold change (FC) [25]: 2.5
Activity [9]: Active
fold change (FC) [26]: 4
Activity [27]: Active
fold change (FC) [28]: 3
Activity [29]: Active
fold change (FC) [30]: 3
Activity [4]: Active
fold change (FC) [31]: 3
Activity [1]: Non-toxic
Activity [32]: Active
Activity [33]: Active
Activity [34]: Active
Activity [35]: Active
Activity [36]: inactive
Activity [2]: Active
fold change (FC) [37]: 4
Activity [10]: 5%
Activity [38]: Active
Activity [39]: Active
Activity [3]: Non-toxic
Activity [5]: Active
Activity [40]: Active
Activity [11]: Active
Activity [41]: inactive
Activity [6]: inactive
fold change (FC) [42]: 2

Fc1ccc2c(c1)sc1nc(-c3ccccc3)c(CN3CCCC3)n12
Activity [1]: Non-toxic
Activity [2]: Active
Activity [3]: Non-toxic

Clc1ccc(-c2nc3sc4ccccc4n3c2CN2CCCC2)cc1
Activity [1]: Non-toxic
Activity [2]: Active
Activity [3]: Non-toxic
